Here are results for ten molecules from article PMC9196953 (Drug development research, 1999).

Like-named read-outs stand apart in the source and are kept apart here.

For assay [1], the target named is T1, human A1 receptors (Homo sapiens, UniProt P30542).
T1 construct: expressed in transfected cells; host or cells: HEK-293
T1 sequence (P30542 1-326): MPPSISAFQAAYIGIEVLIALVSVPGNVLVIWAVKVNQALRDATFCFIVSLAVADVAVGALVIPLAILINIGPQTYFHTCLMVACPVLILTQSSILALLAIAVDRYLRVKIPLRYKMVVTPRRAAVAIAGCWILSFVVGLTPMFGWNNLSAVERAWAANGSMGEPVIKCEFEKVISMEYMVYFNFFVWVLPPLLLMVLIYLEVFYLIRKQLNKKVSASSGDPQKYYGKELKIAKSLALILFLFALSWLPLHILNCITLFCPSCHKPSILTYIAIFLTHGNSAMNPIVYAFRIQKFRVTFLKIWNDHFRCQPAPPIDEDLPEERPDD
Put plainly: Binding at recombinant human A1 receptors expressed in HEK-293 cells vs [3H]CPX. Particulars: recombinant human A1 in HEK-293 cells. How it is done: (§1) All nonradioactive compounds were initially dissolved in DMSO and diluted with buffer to the final concentration, where the amount of DMSO never exceeded 2%. Incubations were terminated by rapid filtration over Whatman GF/B filters using a Brandell cell harvester. The tubes were rinsed three times with 3 mL buffer each.
(§2) At least six different concentrations of competitor, spanning 3 orders of magnitude adjusted appropriately for the IC50 value of each compound, were used. IC50 values, calculated with the nonlinear regression method implemented in Graph-Pad Prism (San Diego, CA) were converted to apparent Ki values as described by [Linden [1982]]. Hill coefficients of the tested compounds were in the range of 0.8–1.1.
(§3) At A2B receptors, two radioligand binding assays (Table 1) were used. Ki values of xanthine derivatives were determined in displacement of binding of the non-selective radioligands […], 8 (4-(2-[7-amino-2-{furyl}{1,2,4}triazolo{2,3-a}{1,3,5}tr nzyl)-8-phenyloxyacetate-1-propyl-xanthine), at human A2B receptors expressed in HEK-293 cell membranes [[Linden and Jacobson, 1998]]. In order to evaluate selectivity, selected derivatives were subjected to standard binding assays at A1, A2A, and A3 receptors. The initial screening utilized rat brain A1/A2A receptors (with radioligands [^3H]R-PIA and [^3H]CGS-21680), and selected compounds were examined at the recombinant human subtypes (Table 1), using [^3H]CPX ([^3H]8-cyclopentyl-1,3-dipropylxanthine) and ^125I-ZM 241385, ^125I-4-(2-[7-amino-2-[2-furyl][1,2,4]triazolo[2,3-a][1,3,5]triazin-5-yl-amino]ethyl)phenol) [[Palmer et al., 1996]].

The target in assay [2] is T2, human A2A receptors (Homo sapiens, UniProt P29274).
T2 construct: expressed in transfected cells; host or cells: HEK-293
T2 sequence (P29274 whole entry): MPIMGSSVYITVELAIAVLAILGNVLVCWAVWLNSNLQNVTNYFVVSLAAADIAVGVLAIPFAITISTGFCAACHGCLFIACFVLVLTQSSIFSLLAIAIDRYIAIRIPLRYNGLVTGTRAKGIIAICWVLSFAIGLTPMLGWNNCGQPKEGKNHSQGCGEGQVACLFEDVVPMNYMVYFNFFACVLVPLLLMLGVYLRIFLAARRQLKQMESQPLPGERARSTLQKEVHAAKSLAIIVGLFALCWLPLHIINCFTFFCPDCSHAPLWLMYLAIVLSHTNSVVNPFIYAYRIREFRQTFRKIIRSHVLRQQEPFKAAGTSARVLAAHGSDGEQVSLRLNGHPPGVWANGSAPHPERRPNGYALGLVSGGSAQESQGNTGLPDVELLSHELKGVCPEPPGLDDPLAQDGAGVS
Put plainly: Binding at recombinant human A2A receptors expressed in HEK-293 cells vs [125I]ZM241385. Conditions: recombinant human A2A in HEK-293 cells, read-out: Ki A2A (h) (converted). The protocol: as §1, §2, §3

Assay [3] deals with T3, human A2B receptors (Homo sapiens, UniProt P29275).
T3 construct: expressed in transfected cells; host or cells: HEK-293
T3 sequence (P29275 1-332): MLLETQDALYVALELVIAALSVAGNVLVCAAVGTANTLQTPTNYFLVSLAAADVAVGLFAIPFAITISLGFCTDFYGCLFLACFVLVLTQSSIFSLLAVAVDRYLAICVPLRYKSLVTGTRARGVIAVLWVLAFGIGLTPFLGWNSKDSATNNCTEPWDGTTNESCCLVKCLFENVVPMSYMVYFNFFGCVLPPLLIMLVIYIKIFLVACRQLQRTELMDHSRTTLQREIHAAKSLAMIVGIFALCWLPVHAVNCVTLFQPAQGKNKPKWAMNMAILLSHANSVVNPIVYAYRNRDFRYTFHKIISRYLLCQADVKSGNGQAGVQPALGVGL
Nature of the assay: Binding at human A2B receptors expressed in HEK-293 cells vs [3H]ZM241385. Particulars: for rA1/hA2B: ratio of Ki rat A1 to Ki human A2B. The protocol: The plasmid was amplified in competent JM109 cells and plasmid DNA isolated using Wizard Megaprep columns (Promega Corp., Madison, WI).
Colonies were selected by growth of cells in 0.6 mg/mL G418. Transfected cells were maintained in DMEM supplemented with Hams F12 nutrient mixture (1/1), 10% newborn calf serum, 2 mM glutamine, and containing 50 IU/mL penicillin, 50 μg/mL streptomycin, and 0.2 mg/mL Geneticin (G418, Boehringer Mannheim, Indianapolis, IN).
Confluent monolayers of HEK-A2B cells were washed with PBS followed by ice-cold Buffer A (10 mM HEPES, 10 mM EDTA, pH 7.4) with protease inhibitors ([…] benzamidine, […], and […] of each aprotinin, pepstatin, and leupeptin). The cells were homogenized in a Polytron (Brinkmann) for 20 sec, centrifuged at 30,000g, and the pellets washed twice with buffer HE (10 mM HEPES, 1 mM EDTA, pH 7.4 with protease inhibitors). The final pellet was resuspended in buffer HE, supplemented with 10% sucrose and frozen in aliquots at −80°C. For binding assays, membranes were thawed and diluted 5–10-fold with HE to a final protein concentration of approximately 1 mg/mL. […] After incubating for 20 min at room temperature, 50 mL of 10 mg/mL Na-metabisulfite in water was added the quench the reaction. The reaction products were applied to a C18 HPLC column using 4 mM phosphate, pH 6.0/methanol. […] The incubation time was 3 h at 21°C. […] Membranes were filtered on Whatman GF/C filters using a Brandell cell harvester (Gaithersburg, MD) and washed three times over 15–20 sec with ice-cold buffer (10 mM Tris, 1 mM MgCl2, pH 7.4). […] Data from replicate experiments are tabulated as means ± SEM.
At A2B receptors, two radioligand binding assays (Table 1) were used. […] In order to evaluate selectivity, selected derivatives were subjected to standard binding assays at A1, A2A, and A3 receptors.

The target in assay [4] is T4, human A3 receptors (Homo sapiens, UniProt P0DMS8).
T4 construct: expressed in transfected cells; host or cells: HEK-293
T4 sequence (P0DMS8 1-318): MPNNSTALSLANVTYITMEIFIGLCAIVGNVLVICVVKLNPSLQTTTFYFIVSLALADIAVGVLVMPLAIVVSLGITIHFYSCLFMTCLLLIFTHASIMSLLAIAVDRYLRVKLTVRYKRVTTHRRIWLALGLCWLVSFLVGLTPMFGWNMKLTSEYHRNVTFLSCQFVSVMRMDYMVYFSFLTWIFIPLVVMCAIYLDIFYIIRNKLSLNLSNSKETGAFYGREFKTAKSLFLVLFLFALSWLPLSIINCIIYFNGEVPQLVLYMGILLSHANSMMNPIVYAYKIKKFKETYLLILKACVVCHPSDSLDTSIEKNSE
Nature of the assay: Displacement of [125I]AB-MECA binding at human A3 receptors expressed in HEK cells. Particulars: read-out: Ki hA3. How it is done:
as §3
In general terms: In a radioligand displacement assay an active substance lowers the binding of a labelled ligand.

For assay [5], the target named is T5, rat A1 receptors (Rattus norvegicus, UniProt P25099).
T5 construct: to A1 receptors from rat cerebral cortical membranes; from tissue; host or cells: rat cerebral cortical membranes
T5 sequence (P25099 1-326): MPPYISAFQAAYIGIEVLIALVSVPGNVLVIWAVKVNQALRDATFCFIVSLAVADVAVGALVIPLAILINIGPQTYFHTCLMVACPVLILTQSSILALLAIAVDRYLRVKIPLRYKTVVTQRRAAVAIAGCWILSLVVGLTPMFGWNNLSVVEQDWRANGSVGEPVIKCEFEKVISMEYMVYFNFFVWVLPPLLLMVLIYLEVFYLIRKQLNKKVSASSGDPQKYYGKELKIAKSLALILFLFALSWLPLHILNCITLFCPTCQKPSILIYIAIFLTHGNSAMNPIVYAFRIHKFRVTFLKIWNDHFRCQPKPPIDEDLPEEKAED
Put plainly: Displacement of [3H]R-PIA binding to A1 receptors in rat brain membranes. Conditions: read-out: Ki rA1. How it is done:
as §1, §2, §3

Assay [6] has as its target T6, rat A2A receptors (Rattus norvegicus, UniProt P30543).
T6 construct: to A2A receptors from rat striatal membranes; from tissue; host or cells: rat striatal membranes
Put plainly: Displacement of [3H]CGS 21680 binding to A2A receptors in rat striatal membranes. Conditions: read-out: Ki rA2A. The protocol: as §1, §2, §3

The target in assay [7] is T3, human A2B receptors. Particulars: ref Jacobson et al., 1999, cited from earlier work.
Assay [8] concerns A2B receptor. Also on record: method as in Brackett and Daly, 1994. Conditions: ref Brackett and Daly, 1994; cited from earlier work.
The mark [9] stands for this setting: HEK-293 cells, vs [3H]ZM241385, read-out: Ki hA2B.
Setting [10] is: rounded values given in text, read-out: Ki at human A2B receptors.

T6 sequence (P30543 whole entry): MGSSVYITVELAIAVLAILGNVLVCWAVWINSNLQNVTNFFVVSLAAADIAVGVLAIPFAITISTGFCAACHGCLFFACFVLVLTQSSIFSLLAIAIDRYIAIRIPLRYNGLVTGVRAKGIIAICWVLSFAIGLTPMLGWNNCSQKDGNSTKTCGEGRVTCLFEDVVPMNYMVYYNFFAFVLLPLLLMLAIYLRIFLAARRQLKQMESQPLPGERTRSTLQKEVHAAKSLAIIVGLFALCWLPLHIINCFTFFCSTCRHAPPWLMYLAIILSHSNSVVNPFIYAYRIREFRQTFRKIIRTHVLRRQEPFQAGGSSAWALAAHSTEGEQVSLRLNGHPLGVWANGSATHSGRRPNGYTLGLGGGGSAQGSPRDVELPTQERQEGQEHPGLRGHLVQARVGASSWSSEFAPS

The term Ki denotes a dissociation constant, usually derived from enzyme kinetics or from competition with a known ligand. For the molecule `CCCn1c(=O)c2[nH]c(-c3ccc(OCC(=O)NN4C(=O)C5CC=CCC5C4=O)cc3)nc2n(CCC)c1=O` (stereo not drawn) [Compound 18b, 8-[4-[(Carboxymethyl)oxy]phenyl]-1,3-di-(n-propyl)xanthine N,N-(cis-1,2,3,6-Tetrahydrophthaloyl)-hydrazide], the Ki in assay [1] was 129 nM; in assay [2], 301 nM; in assay [3] (setting [9]), 10 ± 3 nM; in assay [4] it was 370 ± 190 nM; in assay [5] it was 36.4 ± 6.2 nM; in assay [6], 689 ± 477 nM. Moreover, in assay [3], the rA1/hA2B is listed as 3.6.
As for `CCCn1c(=O)c2[nH]c(-c3ccc(OCC(=O)NN4C(=O)CCC4=O)cc3)nc2n(CCC)c1=O` [Compound 10, 8-[4-[(Carboxymethyl)oxy]phenyl]-1,3-di-(n-propyl)xanthine N,N-Succinylhydrazide], the Ki was 75.2 nM in assay [1]; 27.2 nM in assay [2]; 18.6 ± 6.1 nM in assay [3] (setting [9]); 766 ± 176 nM in assay [4]; 55.9 ± 25.1 nM in assay [5]; 805 ± 44 nM in assay [6]. The rA1/hA2B in assay [3] was determined as 3.0.
On to `CCCn1c(=O)c2[nH]c(-c3ccc(OCC(=O)NN4C(=O)C=C(c5ccccc5)C4=O)cc3)nc2n(CCC)c1=O` [Compound 16, 8-[4-[(Carboxymethyl)oxy]phenyl]-1,3-di-(n-propyl)xanthine N,N-[(2-Phenyl)maleyl]hydrazide], for which the inhibition constant (Ki) stood at 66.7 ± 37 nM in assay [3] (setting [9]); 67 nM in assay [3] (setting [10]); 748 ± 234 nM in assay [4]; 225 ± 76 nM in assay [5]; 1540 nM in assay [6]. The rA1/hA2B in assay [3] is 3.4.
As for `CCCn1c(=O)c2[nH]c(-c3ccc(OCC(=O)NNC(=O)CNC(=O)CNC(=O)OCc4ccccc4)cc3)nc2n(CCC)c1=O` [Compound 27, 8-[4-[(Carboxymethyl)oxy]phenyl]-1,3-di-(n-propyl)xanthine N-(N-Benzyloxycarbonyl-glycylglycinyl)hydrazide], the Ki in assay [1] was 200 nM; in assay [2] it was 830 nM; in assay [3] (setting [9]) it was 10.8 ± 5 nM; in assay [3] (setting [10]), 11 nM; in assay [4] it was 323 ± 47 nM; in assay [5] it was 36 ± 6.6 nM. For the same molecule, the Ki in assay [6] is 609 ± 95 nM. Further, in assay [3], the rA1/hA2B worked out at 3.3.
`Cn1c(=O)c2[nH]c(-c3ccccc3)nc2n(C)c1=O` [Compound 3]: the “enhancement of affinity at A2B receptors” value in assay [7] (relative to theophylline, 2) is 22 fold.
For the molecule `CCCn1c(=O)c2[nH]c(-c3ccc(OCC(=O)NN4C(=O)C(c5ccccc5)=C(c5ccccc5)C4=O)cc3)nc2n(CCC)c1=O` [Compound 17, 8-[4-[(Carboxymethyl)oxy]phenyl]-1,3-di-(n-propyl)xanthine N,N-[(1,2-Diphenyl)maleyl]hydrazide], the Ki in assay [3] (setting [9]) came to 27.9 ± 8.5 nM; in assay [3] (setting [10]), 28 nM; in assay [4], 3450 nM; in assay [5] it was 95.8 ± 25.1 nM; in assay [6] it was 2100 nM. The rA1/hA2B in assay [3] is reported as 3.4.
In the case of `CCCn1c(=O)c2[nH]c(-c3ccc(OCC(=O)NN4C(=O)CC[C@H](NC(=O)C(F)(F)F)C4=O)cc3)nc2n(CCC)c1=O` [Compound 24b], the inhibition constant (Ki) is 149 nM in assay [1]; 178 nM in assay [2]; 13 ± 3.5 nM in assay [3] (setting [9]); 726 ± 245 nM in assay [4]; 53.5 ± 6.5 nM in assay [5]; 440 ± 106 nM in assay [6]. Besides, in assay [3], the rA1/hA2B is on record as 4.1.
`CCCn1c(=O)c2[nH]c(-c3ccc(OCC(=O)ON4C(=O)CCC4=O)cc3)nc2n(CCC)c1=O` [Compound 4d]: the “selectivity for human A2B receptors vs. A1, A2A, and A3 adenosine receptors” value in assay [7] was “approximately 20 fold”.
Take `CCCn1c(=O)c2[nH]c(-c3ccc(OCC(=O)NN4C(=O)C=C(C)C4=O)cc3)nc2n(CCC)c1=O` [Compound 13, 8-[4-[(Carboxymethyl)oxy]phenyl]-1,3-di-(n-propyl)xanthine N,N-Citraconylhydrazide]: the Ki in assay [3] (setting [9]) came to 144 ± 11 nM; in assay [4] it was 551 ± 106 nM; in assay [5], 203 ± 41 nM; in assay [6] it was 1230 nM. Besides, in assay [3], the rA1/hA2B is reported as 1.4.
Take `O=c1nc2[nH]c3ccccc3nc-2c(=O)[nH]1` [Alloxazine]: the “selectivity as antagonist at the A2B receptor vs. other subtypes” value in assay [8] is listed as “approximately one order of magnitude”.
